Measured values taken from US9226917B2, “Photodynamic therapy for conditions of the eye” (Valeant Pharmaceuticals International, Inc., priority 2008, dated 2016).

Columns and labels:
[1] = system: AMD and other retinal diseases; details: intravitreal injection, published case series; cited from earlier work
[2] = system: subfoveal choroidal neovascularization (CNV) due to AMD; assay: RADICAL study: 24-month randomized, controlled trial of vPDT combination regimens versus ranibizumab monotherapy (visual acuity, retreatments, retinal thickness); format: in vivo, human
Protocol: (§1) The study is a 24-month randomized, controlled trial designed to evaluate 3 combination treatment regimens: (1) very low-fluence vPDT (15 J/cm^2) combined with ranibizumab (0.5 mg) and dexamethasone (0.5 mg); (2) half-fluence vPDT (25 J/cm^2) combined with ranibizumab and dexamethasone; and (3) half-fluence vPDT combined with ranibizumab. These regimens are compared with ranibizumab monotherapy in patients with subfoveal choroidal neovascularization (CNV) due to AMD. Inclusion criteria includes ≧50 years old; naïve to AMD treatment; best-corrected VA (BCVA) letter score of 73-24; subfoveal CNV due to AMD; and lesion size <9 DA. Patients (N=160) are randomly assigned to 1 of the 4 treatment arms at baseline, receive 1 initial treatment, and are to be evaluated for retreatment every month based on novel criteria using OCT and FA. Patients in the ranibizumab monotherapy group receive mandatory dosing at months 1 and 2, and as needed thereafter based on the same retreatment criteria. Patients in the combination therapy groups receive assigned treatment as needed (not more frequently than every 2 months), based on retreatment criteria; if treatment is required in an intervening month, then a ranibizumab injection is given. Study outcomes include efficacy, safety, and number of retreatments.
After their initial randomized study treatment, patients in the combination therapy groups return to the clinic monthly for re-treatment evaluation. Re-treatment criteria are based on optical coherence tomography (OCT) and fluorescein angiography (FA). If OCT central retinal thickness (CRT) is ≧250 μm or is increased >50 μm compared with the lowest previous CRT measurement, then the patient is re-treated.
Combination re-treatment is not administered more frequently than every 2 months. If re-treatment is found to be needed in an intervening month, the patient receives a ranibizumab injection only. After their initial randomized study treatment, patients in the ranibizumab monotherapy group receive mandatory re-treatment at months 1 and 2, and then re-treatment as needed thereafter based on the criteria described above. In all treatment arms, monthly assessments and potential re-treatments continue through 12 months of the study. Between 12 and 24 months, patients attend the clinic at least once every 3 months, or more frequently at the investigator's discretion.
Best-corrected visual acuity is assessed by the ETDRS method at screening, on the day of initial treatment (before treatment), at monthly visits through 6 months, and at the 12-, 18-, and 24-month visits. FA is assessed at screening, at the 3- and 12-month visits, and as required according to re-treatment criteria. OCT is assessed to determine retreatment criteria at every visit. Safety, including intraocular pressure, is also evaluated at every visit.
Study outcomes include visual acuity, CRT, lesion size, number of re-treatments, and safety. The primary efficacy variables are mean number of re-treatments and mean change from baseline in visual acuity score.
Randomization occurs on the day of the first treatment to one of the following groups: • Lucentis monotherapy. • Half-fluence Visudyne-Lucentis (V-L) double therapy. • Half-fluence (25 J/cm^2) Visudyne-Lucentis-Dexamethasone (V-L-D) triple therapy. • Very low-fluence (15 J/cm^2) Visudyne-Lucentis-Dexamethasone (V-L-D) triple therapy.
Treatments occur within 7 days of baseline FA. […]

[3] = RADICAL study: safety / adverse events; format: in vivo, human; details: 12 months
Protocol: as §1, with “Patients in the ranibizumab monotherapy group receive mandatory dosing at months 1 and 2, and as needed thereafter based on the same retreatment criteria. Patients in the combination therapy groups receive assigned treatment as needed (not more frequently than every 2 months), based on retreatment criteria; if treatment is required in an intervening month, then a ranibizumab injection is given. Study outcomes include efficacy, safety, and number of retreatments.” left out
Best-corrected visual acuity is assessed by the ETDRS method at screening, on the day of initial treatment (before treatment), at monthly visits through 6 months, and at the 12-, 18-, and 24-month visits. FA is assessed at screening, at the 3- and 12-month visits, and as required according to re-treatment criteria. OCT is assessed to determine retreatment criteria at every visit. Safety, including intraocular pressure, is also evaluated at every visit. […]

[4] = system: CNV due to AMD; details: dosing every 3 months compared to continued monthly dosing, on average, over the following 9 months; cited from earlier work

Row | Substance | mean VA in treated patients [1] | percentage of patients whose vision improved by 3 lines or more ([2]; 12 months) [%] | Mean retreatment rate ([2]; ITT, 12 months, Day 0 treatment excluded) | Mean VA improvement from baseline (letters) ([2]; ITT, month 12) | Mean VA improvement from baseline (letters) ([2]; Per-protocol, 12 months) | Mean retreatment rate ([2]; Per-protocol, 12 months) | Ocular adverse events considered associated with treatment (share of patients) [3] | loss of visual acuity benefit [4] [letter]
1 | bevacizumab [Avastin] | increase of mean VA |  |  |  |  |  |  | 
2 | ranibizumab [Lucentis monotherapy] |  | 24 | 5.4 | 6.5 | 6.8 | 5.9 | approximately one-fourth | ~5
